Like-named read-outs stand apart in the source and are kept apart here.

Usually IC50 stands for the concentration at which inhibition is half-maximal.

Data set [1] concerns patterned hPSC-CMs. Description: Fluorometric cellular ROS / NO / superoxide detection assay in patterned hPSC-CMs. In kind it is cell-based, human. The settings on record: patterned cells. How it is done:
PGC1-α is known to perform a central controlling role in global oxidative metabolism through induction of mitochondrial biogenesis and tuning of the intrinsic metabolic properties of mitochondria_ENREF_35. […] Based on this understanding, a fluorometric cellular ROS detection assay was performed on unpatterned and patterned hPSC-CMs to determine whether upregulation of the PGC1-α protein in patterned cells had any notable impact on oxidative stress. FIGS. 8A-8F show the effect of nanotopography on expression of oxidative stress markers in cultured hPSC-CMs. […] Samples analyzed were patterned cells treated with an NO scavenger (NO−), patterned cells treated with an NO inducer (NO+), untreated unpatterned cells, and untreated patterned cells. […] No difference was observed between flat and patterned samples. […] Samples analyzed were patterned cells treated with an ROS inhibitor (ROS−), patterned cells treated with an ROS inducer (ROS+), untreated unpatterned cells, and untreated patterned cells. […] […] A significant difference was also observed between flat and patterned samples. In all presented data, *p<0.05.

Data set [2] relates to HCM hPSC-CMs (MYH7 R663H variant). Description: Depolarizing spike slope of HCM patient-derived hPSC-CMs on flat and patterned MEAs. Type of data set: cell-based, human. The settings on record: 1 μM, 30 minutes, patterned HCM cells. From the text:
Hypertrophic cardiomyopathy (HCM) manifests as a thickening of the myocardial tissue, typically due to mutations in genes encoding specific sarcomeric proteins.
FIG. 14A depicts an immunostained image of hPSC-CMs obtained from HCM patients and maintained on flat Nafion substrates. FIG. 14B depicts an immunostained image of hPSC-CMs obtained from an unaffected family member related to the examined HCM patient and maintained on flat Nafion substrates. FIG. 14C depicts an immunostained image of hPSC-CMs obtained from HCM patients and maintained on patterned Nafion substrates. FIG. 14D depicts an immunostained image of hPSC-CMs obtained from an unaffected family member related to the examined HCM patient and maintained on patterned Nafion substrates. FIG. 14E depicts quantification of sarcomere length measured from HCM and familial control hPSC-CMs maintained on flat and patterned Nafion substrates. FIG. 14F depicts quantification of z-band width measured from HCM and familial control hPSC-CMs maintained on flat and patterned Nafion substrates. FIG. 14G depicts representative QRS complex traces collected from HCM hPSC-CMs on flat and patterned MEAs. FIG. 14H depicts fold-change in average spike slope (Q-R angle) measured across 30 beats from normal and HCM hPSC-CMs on flat and patterned MEAs. […]

In data set [3] the test system is hPSC-CM monolayers. Description: MEA field potential recording (FPDc, arrhythmia) of hPSC-CM monolayers on flat MEAs and nanoMEAs. From the text: Median difference in beat interval (ΔBI), mean ΔBI, and the standard deviation of the ΔBI were compared in order to provide quantification of baseline arrhythmic properties in line with previously published methods.
The ability to pattern individual wells within a multiwell MEA plate enabled assessment of multiple doses across both surface conditions within a single device, thereby increasing throughput for such comparative studies. Verapamil was first examined as a negative control compound.
FIG. 12A depicts representative traces (averaged across 10 beats) recorded from hPSC-CM monolayers on flat MEAs and subjected to increasing doses of verapamil. FIG. 12B depicts representative traces recorded from hPSC-CM monolayers on nanoMEAs and subjected to increasing doses of verapamil. FIG. 12C depicts normalized dose response curve illustrating the effect for increasing concentrations of verapamil on the field potential durations corrected for beat rate (FPDc) of unpatterned and patterned hPSC-CMs.
[…] depicts representative traces recorded from hPSC-CM monolayers on flat MEAs and subjected to increasing doses of cisapride. […] depicts representative traces recorded from hPSC-CM monolayers on nanoMEAs and subjected to increasing doses of cisapride. FIG. 12F depicts normalized dose response curve illustrating the effect of increasing concentrations of cisapride on the FPDc of unpatterned and patterned hPSC-CMs.
The mechanism by which bepridil prolongs QT is yet to be fully elucidated. However, in addition to regulating Ca^2+ release, it is known that bepridil competes with cTnI for troponin C binding sites, thereby altering Ca^2+ sensitivity in exposed cells. […] FIG. 12G depicts representative traces recorded from hPSC-CM monolayers on flat MEAs and subjected to increasing doses of bepridil. FIG. 12H depicts representative traces recorded from hPSC-CM monolayers on nanoMEAs and subjected to increasing doses of bepridil. FIG. 12I depicts normalized dose response curve illustrating effect of increasing concentrations of bepridil on the FPDc of unpatterned and patterned hPSC-CMs.

Data set [4] concerns 3D cardiac tissues. Description: Field potential duration of 3D cardiac tissues on nanoMEA. Type of data set: cell-based. The settings on record: increasing doses, 3D patterned versus 2D unpatterned and 2D patterned, 21 days culture.
Procedure: FIG. 15 depicts engineered cardiac tissue responses to treatment with increasing doses of the hERG channel blocker cisapride on 2D unpatterned, 2D patterned and 3D patterned cell cultures. […] In this experiment, cells are first plated onto a nanoMEA substrate in a 4 μL droplet of medium. 17,500 cells are resuspended in this droplet and allowed to adhere to the substrate for 1 hour. At this point, a further 17,500 cells in 2 μL of medium are plated on top of the existing droplet and allowed to adhere to the first layer of cells. This process is repeated 2 more times to form 4 layers of cells on top of the patterned substrate. Cells on the first layer align in parallel with the underlying substrate and subsequent layers align in parallel with the layer below. Cardiomyocytes are mixed with cardiac fibroblasts at a ratio of 10 cardiomyocytes to 1 fibroblast. An hour after the last plating, the MEA wells are flooded with additional medium to maintain the cells and the constructs are then cultured out to 21 days before being used for drug screening assessment.
The subject of data set [5] is hPSC-CM monolayers. Description: MEA conduction velocity (TCV, LCV) across hPSC-CM monolayers on flat and nanotopographically-patterned MEAs. The settings on record: for IC50: Homo sapiens, longitudinal conduction velocity, read-out: IC50 from LCV data. Type of data set: cell-based, human. The text has this:
Additionally, interrogation of monolayer culture by MEA facilitates assessment of conduction velocity in a manner that is difficult when using single cell analysis methods, such as patch clamp electrophysiology. For all propagation experiments discussed herein, longitudinal conduction dictates the vertical orientation on the MEA as all nanopatterns were oriented to run vertically during pattern generation. FIG. 6I depicts measurement of conduction velocity (CV) across hPSC-CM monolayers on flat and nanotopographically-patterned MEAs. Conduction was measured specifically in both the transverse (TCV) and longitudinal (LCV) orientations and underlying nanotopography was organized to run longitudinally. In all presented data, *p<0.03, **p<0.003, ***p<0.001. […] Furthermore, longitudinal conduction velocities measured from patterned cells were substantially faster than similar measurements taken from flat controls, as well as global (non-directional) conduction velocity measurements. Specifically, longitudinal conduction velocity measured from patterned cells was recorded as 32.73 cm/s±9.51, whereas flat controls produced longitudinal and global conduction speeds of 10.32 cm/s±2.62 and […], respectively.
In cardiac tissue, it is known to exert a strong conduction blocking effect, inhibiting action potential propagation and in turn affecting synchronous contraction of the tissue.
Dose response curves were calculated from analysis of propagation speeds in both the transverse (TCV) and longitudinal (LCV) directions. The R^2 values for TCV and LCV curve fits were 0.23 and 0.11, respectively. […] The R^2 values for TCV and LCV curve fits were 0.21 and 0.28, respectively.
Furthermore, the inconsistency of the propagation waves on these surfaces led to substantial variability in measured values across experimental repeats, making it difficult to construct well-fitted dose response curves. […] Residual values indicate the vertical distance (in Y units; in this case % change in conduction velocity) of the measured points from the fit line.

[6] abbreviates: unpatterned and patterned cells, increasing doses.

With c-PTIO, in data set [1], the “pixel intensity, NO detection reagent” value is “significantly lower than all other groups”.

Regarding `COc1ccc(CCN(C)CCCC(C#N)(c2ccc(OC)c(OC)c2)C(C)C)cc1OC` (stereo not shown) [verapamil], the “effect on depolarizing spike slope” value in data set [2] is “improved patterned HCM spike slopes”. Moreover, in data set [3] (setting [6]), the arrhythmogenic effect entry is “no notable arrhythmogenic effect” and the “effect on FPDc / field potential” value is recorded as “significant shortening of FPDc”.

Regarding `Cn1c2cccc(=O)c-2nc2ccccc21` [Pyocyanin], in data set [1], the “pixel intensity, oxidative stress detection reagent” value is given as “significantly higher values then all other groups” and the “pixel intensity, superoxide detection reagent” value was “significantly higher than all other groups”.

`N=C(N)NCCC[C@H](N)C(=O)O` [L-arginine]: in data set [1], the “pixel intensity, NO detection reagent” value is listed as “significantly higher than all other groups”.

Consider `CC(=O)N[C@@H](CS)C(=O)O` [N-acetyl-L-cysteine], for which, in data set [1], the “pixel intensity, oxidative stress detection reagent” value is on record as “significantly lower than all other groups examined, with the exception of the patterned samples” and the “pixel intensity, superoxide detection reagent” value is “significantly lower than all other groups”.

Regarding `COc1cc(N)c(Cl)cc1C(=O)NC1CCN(CCCOc2ccc(F)cc2)CC1OC` (stereo not shown) [cisapride], in data set [4], the “field potential duration prolongation, 3D versus 2D cultures” value is “significantly stronger reactions”. Also, the “effect on FPDc / field potential” value in data set [3] is “significant prolongation of the field potential”. The FPDc prolongation in data set [3] (1 μM, cells on both substrates) is roughly 50%.

Regarding `CC1(C)[C@@H](OC(=O)CCC(=O)O)CC[C@]2(C)[C@H]3C(=O)C=C4[C@@H]5C[C@@](C)(C(=O)O)CC[C@]5(C)CC[C@@]4(C)[C@]3(C)CC[C@@H]12` [carbenoxolone], the concentration for half-maximal inhibition (IC50) in data set [5] (flat hPSC-CM monolayers) was 398 nM; in data set [5] (nanotopographically-patterned hPSC-CM monolayers), 14.7 nM. For the same compound, the “effect on conduction speeds” value in data set [5] (in vitro, nanoMEA platform) is on record as “significantly reduced conduction speeds”.

Take `CC(C)COCC(CN(Cc1ccccc1)c1ccccc1)N1CCCC1` (stereo not shown) [bepridil]: in data set [3], the “change in FPDc” value is “not significantly different from baseline” and the “effect on FPDc” value is recorded as “significant prolongation of FPDc”. The “change in FPDc from baseline” value in data set [3] (1 μM, flat cells) worked out at 7%. Further, the “increase of FPDc from baseline” value in data set [3] (1 μM, patterned cells) was “roughly 20%”.

For the origin of these results see patent US20200055041A1, “DEVICE, SYSTEM AND METHODS FOR ELECTROPHYSIOLOGICAL INTERROGATION OF CELLS AND TISSUES” (Nanosurface Biomedical, Inc., priority 2017, published 2020).
